Where “and” joins values, the source holds several entries; their conditions need not be identical. Equal values may be shown once.
Target: T1, NS3 (West Nile virus, UniProt K4FQI5)
T1 sequence (K4FQI5 whole entry): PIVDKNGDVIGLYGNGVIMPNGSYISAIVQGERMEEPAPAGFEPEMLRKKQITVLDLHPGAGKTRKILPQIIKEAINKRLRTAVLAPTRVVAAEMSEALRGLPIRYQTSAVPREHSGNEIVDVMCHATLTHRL
Assay: Functional biochemical assay to identify treatments for viral infectious disease that targets West Nile NS2B-NS3 protease. Utilizing a direct enzyme activity measurement method, reading the fluorescence intensity is used to characterize the relative potency of inhibitors as IC50.
Design: species or system NY-99

Compound | IC50
O=C(Nc1ccc2c(c1)CNC2)c1cc(F)cc(-c2cnc(C3CC3)s2)c1 | 1.99 µM
O=C(Nc1cc2c(cc1C1CC1)CNC2)c1cc(F)cc2[nH]ncc12 | 0.832 µM
O=C(Nc1cc(Cl)cc(C(=O)Nc2cccc([C@H]3C[C@H]3C(=O)O)c2)c1)OCc1ccccc1 | 81.5 µM
CN1Cc2ccc(NC(=O)c3cc(Cl)cc4[nH]ncc34)cc2C1 | > 99.5 µM
O=C(Nc1ccc2c(c1)CNC2)c1cc(Cl)cc(C(F)(F)F)n1 | 40.1 µM
O=C(Nc1ccc2c(c1)CNC2)c1cccc2[nH]ccc12 | 8.63 µM
O=C(Nc1ccc2c(c1)CNC2)c1cc(F)cc2[nH]c(CCc3cccnc3)nc12 | 3.31 µM
NCc1cccc(NC(=O)[C@@H](NC(=O)OCc2ccccc2)c2ccc(OCc3ccccc3)cc2)c1 | 6.97 µM
O=C(Nc1ccc2c(c1)CNC2)c1cc(Br)cc2[nH]c([C@H]3CCOC3)nc12 | 92.3 µM
Cc1cc(-c2ccc([C@@H](NC(=O)OCc3ccccc3)C(=O)Nc3cccc(CN)c3)cc2)cs1 | 3.42 µM
O=C(O)c1cc(Oc2ccc(F)cc2)c(F)cc1NS(=O)(=O)c1ccc(Oc2ccccc2Cl)cc1 | 3.39 µM
Cc1ccc(S(=O)(=O)CNC(=O)[C@H](Nc2ccc3c(c2)CNC3)c2cc(Cl)cc3[nH]ncc23)cc1 | 11.7 µM
O=C(Nc1cc2c(c(-c3c[nH]c(=O)c(F)c3)c1)CNC2)c1cc(F)cc2[nH]ncc12 | 0.668 µM
Cn1cc2cc(Cl)cc(C(=O)Nc3ccc4c(c3)CNC4)c2n1 | > 24.9 µM
CC(C)NC(=O)[C@H](Nc1ccc2c(c1)CNC2)c1cc(Cl)cc2[nH]c(-c3ccccc3)nc12 | 0.28 µM and 0.286 µM and 0.152 µM and 0.255 µM
O=C(NC1CCOCC1)[C@H](Nc1ccc2c(c1)CNC2)c1cc(Cl)cc2[nH]ncc12 | 0.115 µM
c1cc(C2CCN(Cc3c[nH]c4ccccc34)CC2)c2ccncc2c1 | > 99.5 µM
Cn1c(=O)[nH]c2c(C(=O)Nc3ccc4c(c3)CNC4)cc(Br)cc21 | 14.4 µM
COc1cc(Br)cc(C(=O)Nc2ccc3c(c2)CNC3)c1 | 92.7 µM
C=CC[C@H]1NCc2cc(NC(=O)c3cc(F)cc4c3CC(=O)N4)ccc21 | 1.92 µM
N#Cc1csc2cc(C(=O)Nc3ccc4c(c3)CNC4)ccc12 | 25.2 µM
O=C(Nc1ccc2c(c1)CNC2)c1cncc2[nH]ncc12 | 20.8 µM
O=C(Nc1ccc2c(c1)CNC2)c1cc(Cl)cc2c1CCC2 | 22.7 µM
CC(C)c1nn(C)cc1-c1cc(F)cc(C(=O)Nc2ccc3c(c2)CNC3)c1 | 11.9 µM
Cn1ncc2c(C(=O)Nc3ccc4c(c3)CNC4)cc(Cl)cc21 | 1.88 µM

Compound | IC50
CNC(=O)[C@H](Nc1ccc2c(c1)CNC2)c1cc(Cl)cc2c1OCC2 | 3.8 µM
O=C(Nc1ccc2c(c1)CNC2)c1cc(Cl)cc2c1cnn2C1CCOCC1 | 1.45 µM
NCCc1ccc([C@H]2C[C@@H]2c2cc(Cl)cc(NC(=O)OCc3ccccc3)c2)cc1 | 7.12 µM
Cc1c(C(=O)Nc2cc(-c3cccnc3)ccn2)cc(C2CC2)n1C | 12.8 µM
C[C@]1(O)C(=O)Nc2cc(F)cc(C(=O)Nc3ccc4c(c3)CNC4)c21 | 5.58 µM
O=C(Nc1ccc2c(c1)CNC2)c1cc(F)cc2[nH]ncc12 | 1.42 µM
O=C(O)c1ccc(-c2cc(NC(=O)c3cc(F)cc4[nH]ncc34)cc3c2CNC3)cc1 | 1.15 µM
N=C(N)NCc1ccc(OC(=O)Nc2ccccc2)cc1 | > 100 µM
O=C(Nc1ccc2c(c1)CNC2)c1cc(Br)cc2[nH]c([C@H]3CCCO3)nc12 | > 99.5 µM
CCOCC1(c2nc3c(C(=O)Nc4ccc5c(c4)CNC5)cc(Cl)cc3[nH]2)CC1 | > 99.5 µM
CCCC[C@H](NC(C)=O)C(=O)N[C@H](C(=O)NCc1ccc(C(N)=O)cc1)c1ccc(OCc2ccccc2)cc1 | > 99.5 µM
Cc1ncc(-c2cc(F)cc(C(=O)Nc3ccc4c(c3)CNC4)c2)s1 | 2.28 µM
CNC(=O)[C@H](Nc1cccc(CN)c1)c1cc(Cl)cc(NC(=O)OCc2ccccc2)c1 | 1.88 µM
O=C(Nc1ccc2c(c1)CNC2)c1cc(Cl)cc2nn(-c3ccccc3)nc12 | 21.5 µM
O=C(NCC(F)F)[C@H](Nc1ccc2c(c1)CNC2)c1cc(Cl)cc(C2CC2)c1 | 129 nM (2×) and 840 nM
CC(C)(C)c1nc2c(C(=O)Nc3ccc4c(c3)CNC4)cc(Br)cc2[nH]1 | > 99.5 µM
CCCn1cc2c(C(=O)Nc3ccc4c(c3)CNC4)cc(Cl)cc2n1 | 1.97 µM
Cc1[nH]c2ccccc2c1CN1CCC(c2c[nH]c3ncccc23)CC1 | > 99.5 µM
N=C(N)NCCc1ccc(OC(=O)Nc2ccccc2)cc1 | > 100 µM
O=C(Nc1ccc2c(c1)CNC2)c1cc(Br)cc2[nH]c(-c3ccccc3)nc12 | 11.4 µM
CNC(=O)[C@H](Nc1cc(CN)cc(C(=O)O)c1)c1cc(Cl)cc(C2CC2)c1 | 1.46 µM
CC(=O)Nc1cc(Br)cc(C(=O)Nc2ccc3c(c2)CNC3)c1 | 31.5 µM
CCCCCC(=O)N[C@H](C(=O)Nc1ccc(C(N)=O)cc1)c1ccc(OCc2ccccc2)cc1 | > 99.5 µM
CN1C(=O)CC[C@H]1c1nc2c(C(=O)Nc3ccc4c(c3)CNC4)cc(F)cc2[nH]1 | 14.1 µM
O=C(Nc1ccc2c(c1)CNC2)c1cc(Br)cc2[nH]c(C3CCOCC3)nc12 | > 99.5 µM

Compound | IC50
c1ccc2c(CN3CCC(c4cscn4)CC3)c[nH]c2c1 | > 99.5 µM
O=C(Nc1ccc2c(c1)CNC2)c1cc(F)cc2[nH]c(-c3ccccc3F)nc12 | 2.39 µM
CCCn1ncc2c(C(=O)Nc3ccc4c(c3)CNC4)cc(Cl)cc21 | 12.5 µM
O=C(Nc1ccc2c(c1)CNC2)c1cccc2c1[C@]1(CCNC1)C(=O)N2 | 1.62 µM
CCCCCC(=O)N[C@H](C(=O)N1CCCCC1)c1ccc(OCc2ccccc2)cc1 | > 99.5 µM
CC(C)(c1nc2c(C(=O)Nc3ccc4c(c3)CNC4)cc(F)cc2[nH]1)S(C)(=O)=O | 9.71 µM
Cn1ccc(-c2cc(F)cc(C(=O)Nc3ccc4c(c3)CNC4)c2)cc1=O | 2.23 µM
CNC(=O)[C@H](Nc1ccc2c(c1)CNC2)c1cc(Cl)cc2[nH]ncc12 | 0.677 µM
COCCCNC(=O)[C@H](Nc1ccc2c(c1)CNC2)c1cc(Cl)cc(C2CC2)c1 | 0.583 µM
O=C(Nc1ccc2c(c1)CNC2)c1cc(Cl)cc2[nH]c(-c3nc4c(s3)CCC4)nc12 | 40.3 µM
O=C(Nc1ccc2c(c1)CN[C@H]2C[C@H](O)CO)c1cc(F)cc2[nH]ncc12 | 2.41 µM
O=C(Nc1ccc2c(c1)CNC2)c1cc(F)cc2[nH]c(CC[C@H]3CCCOC3)nc12 | 3.78 µM
N[C@H]1CCc2cc(NC(=O)c3cc(Cl)cc(NC(=O)OCc4ccccc4)c3)ccc21 | 45.1 µM
O=C(NCc1cccnc1)[C@H](Nc1ccc2c(c1)CNC2)c1cc(Cl)cc2[nH]ncc12 | 1.37 µM
C=C[C@H]1NCc2cc(NC(=O)c3cc(F)cc4[nH]ncc34)ccc21 | 3.07 µM
O=C(Nc1ccc2c(c1)CNC2)c1cc(Cl)cc2[nH]c(-c3cnc(C4CC4)o3)nc12 | 22.9 µM
CSCCNC(=O)[C@H](Nc1ccc2c(c1)CNC2)c1cc(Cl)cc(C2CC2)c1 | 0.514 µM
C=CC[C@H]1NCc2cc(N[C@H](C(=O)NCC(F)F)c3cc(Cl)cc(C4CC4)c3)ccc21 | 0.289 µM
O=C(NCCCF)[C@H](Nc1ccc2c(c1)CNC2)c1cc(Cl)cc(C2CC2)c1 | 0.249 µM
CCOCCNC(=O)[C@H](Nc1ccc2c(c1)CNC2)c1cc(Cl)cc2[nH]ncc12 | 0.465 µM
O=C(O)c1cc(Cl)ccc1S(=O)(=O)NC1CCN(c2nc(C3CC3)cc(C(F)(F)F)n2)CC1 | 48.5 µM
O=C(NCCOCC1CC1)[C@H](Nc1ccc2c(c1)CNC2)c1cc(Cl)cc(C2CC2)c1 | 0.366 µM
CSCCCNC(=O)[C@H](Nc1ccc2c(c1)CNC2)c1cc(Cl)cc(C2CC2)c1 | 0.573 µM
CCNC(=O)Nc1cc(Cl)cc(C(=O)Nc2ccc3c(c2)CNCCO3)c1 | 15.5 µM
O=C(Nc1ccc2c(c1)CNC2)c1cc(Cl)cc(N2CCCC2=O)c1 | 24.8 µM

Compound | IC50
O=C(Nc1ccc2c(c1)CNC2)c1cc(Br)cc2ccccc12 | 57.6 µM
O=C(Nc1ccc2c(c1)CNC2)c1cc(Cl)cc2nn(C3COC3)cc12 | 42.5 µM
NCc1cc(/C=C/C(=O)O)cc(NC(=O)c2cc(Cl)cc(NC(=O)OCc3ccccc3)c2)c1 | 85 µM
CC(C)CNC(=O)[C@H](Nc1ccc2c(c1)CNC2)c1cc(Cl)cc2[nH]ncc12 | 0.643 µM
O=C(Nc1ccc2c(c1)CNC2)c1cc(Cl)cc2[nH]c(-c3ccc(F)cc3O)nc12 | > 99.5 µM
O=C(Nc1ccc2c(c1)CNC2)c1cc(Cl)cc2nn(C3CCC3)cc12 | 14.7 µM
O=C(Nc1ccc2c(c1)CNC2)c1cccc(-c2cnco2)c1 | 38.4 µM
COC[C@]1(c2nc3c(C(=O)Nc4ccc5c(c4)CNC5)cc(F)cc3[nH]2)CCOC1 | 20.5 µM
c1ccc2sc(C3CCN(Cc4c[nH]c5ccccc45)CC3)nc2c1 | > 99.5 µM
O=C(Nc1ccc2c(c1)CNC2)c1cc(Cl)cc2ccccc12 | 14.7 µM
O=C(Nc1ccc2c(c1)CNC2)c1cc(Cl)cc2cc[nH]c12 | 16.3 µM
NCCc1cccc(NC(=O)c2cc(Cl)cc3[nH]ncc23)c1 | 94.5 µM
COC(=O)CNC(=O)[C@H](Nc1ccc2c(c1)CNC2)c1cc(Cl)cc(C2CC2)c1 | 0.897 µM
O=C(Nc1cc(Br)c2c(c1)CNC2)c1cc(F)cc2[nH]ncc12 | 0.915 µM and 0.957 µM
Cc1cc(C(=O)Nc2ccc3c(c2)CNC3)cc2nc[nH]c12 | 12.5 µM
O=C(Nc1ccc2c(c1)CNC2)c1cc(F)cc2c1CCNC2 | 1.36 µM
Cc1cc(CN)cc(NC(=O)c2cc(Cl)cc3[nH]ncc23)c1 | 22.6 µM
CN(c1ccc2c(c1)CNC2)[C@H](C(=O)NCC(F)F)c1cc(Cl)cc(C2CC2)c1 | 0.131 µM
OCC#C[C@H](Nc1ccc2c(c1)CNC2)c1cc(Cl)cc2[nH]ncc12 | 22.4 µM
CCc1cc(C(=O)Nc2cccc(-n3nn[nH]c3=O)c2)sc1-c1ccc(Cl)cc1 | 20.1 µM
N#Cc1cc2c(cc1NC(=O)c1cc(F)cc3[nH]ncc13)CNC2 | 0.242 µM
NCc1cccc(NC(=O)c2cc(Cl)cc(-n3cccc3)c2)c1 | > 99.5 µM
N#C[C@H](Nc1ccc2c(c1)CNC2)c1cc(Cl)cc(C2CC2)c1 | 59 µM
CCCCNC(=O)[C@H](Nc1ccc2c(c1)CNC2)c1cc(Cl)cc(C2CC2)c1 | 0.295 µM
CCc1ccc(-c2nc3c(C(=O)Nc4ccc5c(c4)CNC5)cc(Cl)cc3[nH]2)cc1 | 32 µM
